From patent US9242960B2, “P38MAP kinase inhibitors” (Respivert Ltd., priority 2009, dated 2016)

Experiments:
sputum macrophages = assay: Sputum macrophage assay (LPS-induced IL-8 release); type: cell-based, human
[1] = tested on: differentiated U937 cells; assay: LPS-induced TNFα release in differentiated U937 cells; type: cell-based; details: Homo sapiens, U-937, read-out: IC50 Values LPS-induced TNFα release d-U937 cells
Experimental: (§1) U937 cells, human monocytic cell line, were differentiated to macrophage-type cells by incubation with phorbol myristate acetate (PMA; 100 ng/ml) for 48 to 72 hr. Where appropriate, cells were pre-incubated with final concentrations of compound for 2 hr. Cells were then stimulated with 0.1 μg/ml of LPS (from E. Coli: O111:B4, Sigma) for 4 hr, and the supernatant collected for determination of TNFα concentration by sandwich ELISA (Duo-set, R&D systems). […] THP-1, human monocytic cell line, was also used for this assay. THP-1 cells were stimulated with 3 μg/ml of LPS (from E. Coli: O111:B4, Sigma) for 4 hr, and the supernatant collected for determination of TNFα concentration.

BEAS2B cells [2] = assay: Rhinovirus-induced IL-8 release in BEAS2B cells; type: cell-based, human
THP-1 cells = assay: LPS-induced TNFα release in THP-1 cells; type: cell-based; details: Homo sapiens, read-out: IC50 Values LPS-induced TNFα release THP1 cells
Experimental: as §1

[3] = tested on: Human rhinovirus RV16 (HRV); assay: Rhinovirus-titre assay in MRC5 cells; type: cell-based; details: concentration range up to 1.9 μM
Experimental: All titrations were performed by infecting confluent Hela cell monolayers with serially diluted supernantant (10^−1 to 10^−5) and assessing cytopathetic effect by MTT assay 4 days after infection. The amount of virus required to infect 50% of Hela cells was calculated in each treatment as TCID50 U/mL. Compounds were added 24 and 2 hr before HRV infection and 1 hr after infection when non-infected HRV was washed out.

BEAS2B cells [4] = assay: Poly I:C-induced ICAM-1 induction in BEAS2B cells; type: cell-based, human; details: at 10 ug/ml
Experimental: Poly I:C (1 ug/ml) (Invivogen Ltd., San Diego, Calif.) was transfected into BEAS2B cells (human bronchial epithelial cells, ATCC) with Oligofectamine (Invitrogen, Carlsbad, Calif.). Cells were pre-incubated with final concentrations of compound for 2 hrs. The level of ICAM1 expression on the cell surface was determined by cell-based ELISA. Briefly, at 18 hrs after poly I:C transfection, cells were fixed with 4% formaldehyde in PBS. After quenching endogenous peroxidase by adding 0.1% sodium azide and 1% hydrogen peroxide, cells were washed with wash-buffer (0.1% Tween in PBS: PBS-Tween). After blocking the wells with 5% milk in PBS-Tween for 1 hr, the cells were incubated with anti-human ICAM-1 antibody (Cell Signaling Technology, Danvers, Mass.) in 1% BSA PBS overnight at 4° C. Cells were washed with PBS-Tween and incubated with the secondary antibody (HRP-conjugated anti-rabbit IgG, Dako Ltd., Glostrup, Denmark).

[5] = tested on: differentiated U937 cells; assay: LPS-induced IL-8 release in differentiated U937 cells; type: cell-based, human
Experimental: U937 cells, human monocytic cell line, were differentiated to macrophage-type cells by incubation with phorbol myristate acetate (PMA; 100 ng/ml) for 48 to 72 hours. Cells were pre-incubated with final concentrations of compound for 2 hrs. Cells were then stimulated with 0.1 μg/ml of LPS (from E. Coli: O111:B4, Sigma) for 4 hrs, and the supernatant collected for determination of the IL-8 concentration by sandwich ELISA (Duo-set, R&D systems).

BEAS2B cells [6] = assay: Rhinovirus-induced ICAM-1 expression in BEAS2B cells; type: cell-based, human
[7] = tested on: neutrophil and macrophage accumulation into airways; assay: Cigarette smoke model; type: in vivo, A/J mice; set-up: dose or concentration left out as unconfirmed; details: (35 μl, bid, in)
Experimental: A/J mice (males, 5 weeks old) were exposed to cigarette smoke (4% cigarette smoke, diluted with compressed air) for 30 min/day for 11 days using a Tobacco Smoke Inhalation Experiment System for small animals (Model SIS-CS; Sibata Scientific Technology, Tokyo, Japan). Test substances were given intra-nasally (35 μl of solution in 50% DMSO/PBS) and therapeutically twice daily for 3 days after the final cigarette smoke exposure. Twelve hours after the last dosing, animals were anesthetized, the trachea cannulated and bronchoalveolar lavage fluid (BALF) was collected. The numbers of alveolar macrophages and neutrophils were determined by FACS analysis (EPICS® ALTRA II, Beckman Coulter, Inc., Fullerton, Calif., USA) using anti-mouse MOMA2 antibody (macrophage) or anti-mouse 7/4 antibody (neutrophil).

[8] = tested on: bronchoconstrictor response to ovalbumin challenge (sGaw); assay: Ovalbumin challenge/parainfluenza infection model; type: in vivo, guinea-pigs; details: 1.5 mg per day nebulised, sensitized animals treated with PIV3 medium (initial studies)

Row | Compound | IC50 Values Sputum macrophages LPS-induced IL-8 release (sputum macrophages) | IC50 [1] | IC50 Values BEAS2B cells Rhinovirus-induced IL-8 release (BEAS2B cells [2]) | IC50 (THP-1 cells) | effect on viral replication [3] | effect on poly I:C induced ICAM1 expression in BEAS2B cells (BEAS2B cells [4]) | maximum inhibition of LPS-induced IL-8 release in differentiated U937 cells [5] | IC50 Values BEAS2B cells Rhinovirus-induced ICAM expression (BEAS2B cells [6]) | macrophage accumulation into airways [7] | neutrophil accumulation into airways [7] | ovalbumin-mediated lung function changes [8]
1 | Cc1ccc(-n2nc(C(C)(C)C)cc2NC(=O)Nc2ccc(OCCN3CCOCC3)c3ccccc23)cc1 [BIRB796] | NSE @ 19 μM | 20 nM | NSE @ 1.9 μM | 12 nM | without effect | no effect | 31% | NSE @ 1.9 μM |  |  | 
2 | CCC(=O)O[C@]1(C(=O)SCF)[C@H](C)C[C@H]2[C@@H]3C[C@H](F)C4=CC(=O)C=C[C@]4(C)[C@@]3(F)[C@@H](O)C[C@@]21C [fluticasone propionate] |  |  |  |  |  |  |  |  | did not inhibit | did not inhibit | inhibited
